According to patent US20100330029A1, “Cancer Treatments with Radiation and Immunocytokines” (Merck Patent GmbH, priority 2008, published 2010):

Columns and labels:
[1] = test system: Lewis Lung Carcinoma cells; assay: rechallenge of cured mice with Lewis Lung Carcinoma cells; type: in vivo
Experimental: The ability of irradiation followed by intravenous administration of the exemplary immunocytokine EMD521873 to generate a long lasting immune response was tested by rechallenging cured mice with tumor cells. Mice bearing Lewis Lung Carcinoma tumors were originally treated with either fractionated radiation (3.6 Gy/d, d0-4) plus cisplatin (4 mg/kg, d0), EMD521873 alone (5 mg/kg, d7, 8, 9), or the combination of EMD521873 plus chemoradiation.

LLC tumors = assay: survival after surgical removal of treated LLC tumor; type: in vivo, mice; details: Experiment LLC-7; EMD521873 5 mg/kg d7, 8, 9 plus chemoradiation; tumor removed day 12 or 13
Experimental: For the tumor growth assay, cells growing exponentially in culture were injected as a single cell suspension in 100 μl of PBS intramuscularly into the upper legs of the mice. In experiments using a dual tumor model, cells were also implanted in the flanks of the mice. After tumors had become established, treatment was initiated (day 0). In Experiment LLC-7, tumors were implanted in the flank until established. Mice were treated on days 0 to 9, then, on day 12, tumors were excised using survival surgery. Thereafter, animal survival was monitored. In Experiment LLC-14, tumors were implanted subcutaneously in the flank until established. Mice were treated on days 0 to 6 and day 17, and tumor size was measured twice weekly for the duration of the study.
In another experiment the ability of local irradiation followed by immunocytokine administration to reduce tumor recurrence following surgery was tested (Experiment LLC-7). Mice with subcutaneous LLC tumors were treated with either chemoradiation (cisplatin 4 mg/kg, d0 plus 3.6 Gy/d, d0-4 of fractionated radiation given to the tumor) or EMD521873 (5 mg/kg, d7, 8, 9) plus chemoradiation. The remaining tumor was then surgically removed on day 12 or 13 and survival was monitored. Ten out of 12 mice treated with the combination achieved long term survival compared to 6 out of 10 treated with radiation alone.

CT26 colon carcinoma = assay: tumor growth assay, CT26 model; type: in vivo, mice; details: Experiment CT26-4; 8 Gy followed by i.v. EMD521873 days 2, 3, 4
Source text: CT26 cells, a murine colon epithelial cell line derived by intrarectal injection of N-nitroso-N-methylurethane in BALB/C mice, were transfected to express the human KS antigen (KSA or EpCAM) that was cloned by PCR and expressed in parental cells using a retroviral vector (Gillies 1998). CT26/KSA cells were maintained in DMEM, supplemented with 10% heat inactivated fetal bovine serum, L-glutamine, vitamins, sodium pyruvate, non-essential amino acids, penicillin/streptomycin and Geneticin® (G418) (Life Technologies, Inc.) at 37° C. and 7% CO2. G418 was added to maintain KSA expression. CT26 and CT26/KSA cells were implanted in female BALB/C mice.
For the tumor growth assay, cells growing exponentially in culture were injected as a single cell suspension in 100 μl of PBS intramuscularly into the upper legs of the mice. In experiments using a dual tumor model, cells were also implanted in the flanks of the mice. […] Thereafter, animal survival was monitored. […] Mice were treated on days 0 to 6 and day 17, and tumor size was measured twice weekly for the duration of the study.
Tumors were measured with calipers in three dimensions for the duration of the experiment. Tumor volumes were calculated using the equation: […]
In the CT26 model (Experiment CT26-4), tumors were irradiated with either 4 or 8 Gy followed by i.v. EMD521873 on days 2, 3, and 4. […] Immune response in the tumor was not monitored.

malignant melanoma = assay: study in cutaneous/subcutaneous malignant melanoma; type: in vivo; details: human melanoma; EMD521873 0.3 mg/kg and local radiation vs EMD521873 only
Experimental: A study is performed to investigate the responses of cutaneous metastases in patients with stage IIIb-IV cutaneous/subcutaneous malignant melanoma to EMD521873 at the tumor site and in blood to EMD521873 in combination with local irradiation (25 Gy). The first treatment cycle with EMD521873 starts on day 1. Subsequent cycles are administered at 3-week intervals. Prior to the first dose of EMD521873, subjects are treated with two courses of local radiation (25 Gy) administered in fractions of 5 Gy on 5 consecutive days ([…]; and days −7 to −3) to different metastases.
For each patient, at least two cutaneous or subcutaneous lesions eligible for biopsy are selected for potential radiation (lesion A1 and lesion A2) and, if present, a third lesion (lesion A3) is also selected. A biopsy of a cutaneous/subcutaneous lesion (lesion A1) and blood sampling are performed at baseline (D-28). After 7 days, allowing for the necessary healing of the biopsy area, lesion A1 is irradiated (5×5 Gy) over 5 consecutive days starting on day −21 (D−21 to D−17). On day −7 (D−7) blood samples are withdrawn and a biopsy of the irradiated lesion A1 is taken. This tumor sample serves as an intraindividual control to assess the effect of radiation alone. On day −14, the pre-selected lesions A2 and A3 are also biopsied and blood drawn. […]

CT26-specific T-cells = assay: ELISPOT assay for IFNγ induction in splenocytes, CT26/KSA model; type: in vivo, mice; details: radiation followed by EMD521873, compared to either therapy alone
Experimental: Enzyme-linked immunospot C (ELISPOT) assays for IFNγ induction in splenocytes were conducted by first coating ELISPOT plates with an anti-IFNγ antibody (murine IFNγ kit, BD Biosciences). Splenocytes from treated mice were added to the plates and incubated with an AH1:A5 peptide to stimulate IFNγ release from CT26-specific T-cells. Biotinylated IFNγ detection Ab and streptavidin-HRP were added to the plates. Resultant spots from individual IFNγ-producing lymphocytes were counted using a Zeiss® KS-ELISPOT plate reader.

[2] = test system: immune effector cell populations in blood; assay: FACS analysis of immune effector cell populations in blood, CT26/KSA model; type: in vivo, mice
Experimental: Immune effector cell populations in blood were analyzed by FACS. Blood was collected from the retro-orbital sinus of each mouse. Red blood cells were eliminated using lysis buffer. After blocking with rat IgG (1:50), samples were incubated with a 7-color cocktail of antibodies against CD4, CD8, CD25, CD44, CD62L, CD11b, and DX5. Samples were run on a FacsARIA and analyzed for various cell subpopulations.

Substance: dI-NHS76γ2(h)(FN>AQ)-ala-IL2(D20T) [EMD521873]
- mice with complete response that did not regrow tumor on rechallenge ([1]; EMD521873/Chemoradiation treatment, s.c. LLC rechallenge after complete remission >50 days): 12 out of 13
- Immunity to Rechallenge ([1]; Exp LLC-4, cured C57BL/6 mice rechallenged with LLC cells): 0/1
- mice with complete responses immune to rechallenge with LLC cells ([1]; LLC-8, LLC-9, combination with chemoradiation): Four out of 4
- long term survival after surgery (LLC tumors): Ten out of 12
- tumor growth (CT26 colon carcinoma): blocked tumor growth beyond either therapy alone
- tumor progression (PET or CT scan) (malignant melanoma): reduced tumor progression
- increase in T cell response (ELISPOT, endogenous CT26 antigen) (CT26-specific T-cells): > 4 fold
- CD4+CD25+ lymphocyte subpopulation in the blood ([2]; radiation followed by EMD521873 (combination)): increased
- increase in effector T cells in the blood ([2]; radiation followed by EMD521873, compared to either therapy alone): 4 fold
